# Laboratory results published in patent publication US20180318241A1, “TREATMENT OF NERVOUS SYSTEM DISORDERS USING THYROID HORMONE NEUTRAL DOSES OF RXR AGONISTS” (Io Therapeutics, Inc., priority 2015, published 2018).
# “Also recorded” adds a separate entry of the source.
# Columns and labels:
# RXRγ = target: T1, RXRγ (Homo sapiens, UniProt P48443); test: RXR homodimer transactivation assay (rCRBPII/RXRE-tk-Luc) in CV-1 cells; assay type: cell-based
# T1 construct: an expression construct including a full length RXRα, RXRβ, or RXRγ; expressed in transfected cells; host or cells: CV-1
# T1 sequence (P48443 1-463): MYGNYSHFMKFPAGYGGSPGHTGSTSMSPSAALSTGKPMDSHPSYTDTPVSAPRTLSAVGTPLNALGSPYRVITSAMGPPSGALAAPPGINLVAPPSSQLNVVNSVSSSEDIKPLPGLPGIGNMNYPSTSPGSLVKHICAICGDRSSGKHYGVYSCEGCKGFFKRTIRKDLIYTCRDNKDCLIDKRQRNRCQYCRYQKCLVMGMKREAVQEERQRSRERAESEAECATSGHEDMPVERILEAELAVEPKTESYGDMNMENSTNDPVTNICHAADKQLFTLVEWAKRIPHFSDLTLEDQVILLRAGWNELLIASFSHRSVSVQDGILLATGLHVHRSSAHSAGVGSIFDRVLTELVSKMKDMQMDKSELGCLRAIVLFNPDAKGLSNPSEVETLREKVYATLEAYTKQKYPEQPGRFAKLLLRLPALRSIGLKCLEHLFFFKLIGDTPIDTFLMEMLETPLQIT
# EAE in B6 mice = test: EAE dose titration in B6 mice with spleen and CNS analysis; assay type: in vivo; details: 200 μg/day vs vehicle
# Method: A dose titration experiment was also conducted in EAE mice. EAE was induced in 28 B6 mice with MOG/CFA and PT as above. Mice were scored on day 7 as indicated above and divided into groups by score so means are as equal as possible.
# At the completion of the experiment, the vehicle control and 200 μg/day groups were euthanized and spleen and CNS samples obtained.
# [1] = test system: cuprizone+rapamycin demyelination in C57BL/6J mice; test: Cuprizone/rapamycin 12-week demyelination model, remyelination; assay type: in vivo, mouse; details: 10 mg/kg PO daily for 6 weeks after 12 weeks CR
# Description: All animals were sacrificed after 12 weeks of CR or after further 6 weeks of treatment to evaluate myelin in white matter (corpus callosum) and gray matter (hippocampus and cortex). In addition, the size of myelinated axons was quantified and the large myelinated axons were further assessed by 3D-electron microscopy (3D-EM). A total of 40 animals were included in the study, where all 40 animals received CR demyelination for 12 weeks. After demyelination, a subset (n=10) of animals are sacrificed to serve as controls to assess baseline demyelination. […] Floating brain sections are immunostained with myelin prolipid protein (PLP) to visualize and quantify myelin in gray matter, hippocampus (FIG. 16A) and cortex (FIG. 16B).
# [2] = test system: multiple sclerosis (MS) patients; test: Placebo-controlled clinical trial of thyroid hormone neutral doses in relapsing-remitting MS; assay type: in vivo, human; details: 30 to 180 days
# Method: Patients with relapsing-remitting MS are recruited to participate in the clinical trial and are provided informed consent describing risks and potential benefits of participation. […] Patients are dosed for a minimum of 30 days, and as long as 180 days. […] Serum T4 levels will continue to be determined on a weekly basis.
# Patients are assessed for the status of myelin damage and speed of repair of demyelination in MS lesions that occur over this period of time in their brains, spinal cords, and/or optic nerves. Quantitation of myelin damage and repair is performed at baseline and periodically through the dosing, using specialized imaging methods, which specifically examine and quantitate myelin damage and repair in these parts of the nervous system. […] This compound is useful for useful for quantitating myelin repair. […] In addition to the quantitation of myelin damage and repair by imaging methods, the clinical status of the MS patients' disease progression is preliminarily evaluated using standard clinical endpoints for MS clinical trials, such as the Expanded Disability Status Scale (EDSS). The EDSS is a 10 point scale which quantitates the MS patients' levels of disability by evaluating physical activities of daily life, such as walking, swallowing, bowel and bladder function, etc.
# [3] = test system: ethidium bromide induced demyelination of caudal cerebellar peduncles in rats; test: Focal ethidium bromide induced demyelination, remyelination analysis; assay type: in vivo, rat
# Method: The experiment uses rats of relatively advanced age (1 year) since such rats undergo remyelination in a less efficient manner, thereby providing data that are more relevant to the clinical treatment of human patients with multiple sclerosis or other demyelination disorders.
# Focal demyelination is induced in one year old rats (approximately 300 g in weight) by injecting stereotactically 5 μl of ethidium bromide solution (0.01% vol/vol in saline) in a bilateral manner into the caudal cerebellar peduncles (CCP). […] The rats are killed on day 24 post-ethidium bromide treatment for analysis of remyelination by quantitative polymerase chain reaction (qPCR) and microscopy. Serum T4 levels are determined before initiation of treatment and weekly thereafter and at study termination.
# RARα = RARα (Homo sapiens, UniProt P10276); details: RARs (α, β, γ), at ≥1 μM
# Sequence of RARα (P10276 183-417 limits assumed, species assumed): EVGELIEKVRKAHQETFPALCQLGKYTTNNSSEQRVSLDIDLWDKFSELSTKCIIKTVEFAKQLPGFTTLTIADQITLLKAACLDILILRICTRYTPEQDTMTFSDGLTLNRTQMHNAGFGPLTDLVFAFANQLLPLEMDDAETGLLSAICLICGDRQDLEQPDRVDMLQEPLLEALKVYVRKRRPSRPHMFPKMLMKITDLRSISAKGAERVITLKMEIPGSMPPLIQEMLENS
# Method: To determine whether a RXR agonist can mediate its effects via RXRα receptor homodimers, RXRβ receptor homodimers, RXRγ receptor homodimers, or any combination thereof, or the corresponding RAR/RXR heterodimers, receptor-mediated transactivation assays were performed. For transactivation assays assessing RXR homodimer signaling, CV-1 cells were transfected with 1) an expression construct including a full length RXRα, RXRβ, or RXRγ; and 2) a rCRBPII/RXRE-tk-Luc reporter construct that included RXR homodimer-specific RXRE/DR1 responsive element linked to a luciferase gene. For transactivation assays assessing RAR/RXR heterodimer signaling, CV-1 cells were transfected with 1) an expression construct comprising a fusion protein including an estrogen receptor (ER) DNA binding domain linked to the ligand binding domain of RARα, RARβ, or RARγ and 2) a ERE-tk-Luc reporter construct that included an estrogen receptor responsive element linked to a luciferase gene. […] Data are mean values±SE from five independent experiments.
# Nurr1/RXR = Nurr1/RXR (Homo sapiens, UniProt P19793); test: Permissive heterodimer transactivation assay in COS7 cells; assay type: cell-based
# Sequence of Nurr1/RXR (P43354 whole entry partner, one chain of several): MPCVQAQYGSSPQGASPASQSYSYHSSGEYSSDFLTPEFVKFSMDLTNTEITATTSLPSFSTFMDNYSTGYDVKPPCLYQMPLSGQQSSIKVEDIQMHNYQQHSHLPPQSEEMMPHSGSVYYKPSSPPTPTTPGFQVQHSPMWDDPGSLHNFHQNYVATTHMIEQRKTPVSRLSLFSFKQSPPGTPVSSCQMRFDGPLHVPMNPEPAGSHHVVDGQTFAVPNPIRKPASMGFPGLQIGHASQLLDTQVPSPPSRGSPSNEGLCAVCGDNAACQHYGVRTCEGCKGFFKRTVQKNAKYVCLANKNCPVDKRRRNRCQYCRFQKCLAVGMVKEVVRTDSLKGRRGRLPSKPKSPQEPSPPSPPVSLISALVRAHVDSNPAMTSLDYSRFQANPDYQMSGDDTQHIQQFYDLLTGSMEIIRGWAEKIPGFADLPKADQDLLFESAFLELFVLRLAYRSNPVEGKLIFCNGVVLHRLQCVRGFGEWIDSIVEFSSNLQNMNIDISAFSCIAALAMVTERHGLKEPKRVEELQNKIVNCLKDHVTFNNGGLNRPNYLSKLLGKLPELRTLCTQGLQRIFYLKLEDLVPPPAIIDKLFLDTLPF
# Description: (§1) For PPARγ: CV-1 cells were transfected with 3×(rAOX/DR1)-tk-Luc reporter gene and an expression vector for PPARγ. For FXR:CV-1 cells were transfected with 3×(IBABP/IRI)-tk-Luc reporter gene and vectors for FXR and RXRα. For LXR:CV-1 cells were transfected with 3×(PLTP/LXRE)-tk-Luc reporter gene with vectors for LXRα or LXRβ. For Nurr1: COS7 cells were transfected with 3×NBRE-tk-luc reporter gene and full length Nurr-1 with or without full-length RXRα plasmid. […] Luciferase data were normalized to co-transfected β-gal activity. Luciferase activity was expressed as percent of maximal activity obtained using specific agonists. Rosiglitazone (PPARγ), GW4064 (FXR), T0901317 (LXR).
# EAE in SJL mice = test: EAE in SJL mice; assay type: in vivo; details: 50 μg i.p. every other day, day 8 to day 14
# Method: To determine whether a RXR agonist can attenuate multiple sclerosis, SJL mice were immunized to induce EAE by s.c. injection at the base of their spine with 200 μL of adjuvant containing 200 μg proteolipid proteins (139-151) (PLP peptide; Peptides International, Louisville, Ky.) and 400 μg of non-viable M. tuberculosis H37 desiccate emulsified in a mixture of incomplete Freund's adjuvant and PBS. Mice were also given 150 ng of pertussis toxin in PBS i.p. on the same day as PLP emulsion injection and 2 days later. […] Mice were scored using the scale described in Example 3.
# [4] = test system: oligodendrocyte precursor cells (OPCs); test: OPC differentiation into oligodendrocytes (PLP-EGFP); assay type: cell-based, mouse
# Description: OPCs were generated from a neurosphere culture of E14.5 PLP-EGFP (on C57BL/6J background) mouse brains. […] The EGFP expressing cells were quantified with Cellomics Neuronal Profiling Algorithm.
# The EGFP expressing cells in controls and all compounds were quantified with Cellomics Neuronal Profiling Algorithm.
# [5] = test system: cuprizone+rapamycin demyelination in C57BL/6J mice; assay type: in vivo; details: 6 weeks concurrent with CR
# Description: Animals (8 week-old male C57BL/6J mice) were subjected to cuprizone diet plus rapamycin injections (CR) for 6 weeks to induce demyelination. […] All animals were sacrificed after 6 weeks of CR to evaluate axonal integrity and microglial/macrophage activity in the white matter (corpus callosum, CC).
# A total of 50 animals were included in the study, where 43 animals received CR demyelination for 6 weeks. During demyelination, a subset (n=7) of animals were kept on normal diet to serve as naïve age-matched controls.
# FXR/RXR = target: T2, FXR/RXR (Homo sapiens, UniProt P19793); test: Permissive heterodimer transactivation assay in CV-1 cells; assay type: cell-based; details: 20 hr, relative to GW4064
# T2 construct: expressed in transfected cells; host or cells: CV-1
# T2 sequence (P19793 1-462): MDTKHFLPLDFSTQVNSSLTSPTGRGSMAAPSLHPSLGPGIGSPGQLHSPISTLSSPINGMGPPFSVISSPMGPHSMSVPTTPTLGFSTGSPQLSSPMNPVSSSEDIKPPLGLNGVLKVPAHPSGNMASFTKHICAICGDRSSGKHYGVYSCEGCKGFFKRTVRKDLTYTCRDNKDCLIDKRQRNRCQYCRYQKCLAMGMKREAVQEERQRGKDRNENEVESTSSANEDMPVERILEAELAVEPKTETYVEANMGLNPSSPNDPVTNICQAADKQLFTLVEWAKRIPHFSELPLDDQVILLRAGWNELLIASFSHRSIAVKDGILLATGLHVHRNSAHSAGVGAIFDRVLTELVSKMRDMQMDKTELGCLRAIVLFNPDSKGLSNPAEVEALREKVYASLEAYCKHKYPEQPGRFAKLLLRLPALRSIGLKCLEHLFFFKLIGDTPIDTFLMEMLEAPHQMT
# T2 sequence (Q96RI1 1-486 partner): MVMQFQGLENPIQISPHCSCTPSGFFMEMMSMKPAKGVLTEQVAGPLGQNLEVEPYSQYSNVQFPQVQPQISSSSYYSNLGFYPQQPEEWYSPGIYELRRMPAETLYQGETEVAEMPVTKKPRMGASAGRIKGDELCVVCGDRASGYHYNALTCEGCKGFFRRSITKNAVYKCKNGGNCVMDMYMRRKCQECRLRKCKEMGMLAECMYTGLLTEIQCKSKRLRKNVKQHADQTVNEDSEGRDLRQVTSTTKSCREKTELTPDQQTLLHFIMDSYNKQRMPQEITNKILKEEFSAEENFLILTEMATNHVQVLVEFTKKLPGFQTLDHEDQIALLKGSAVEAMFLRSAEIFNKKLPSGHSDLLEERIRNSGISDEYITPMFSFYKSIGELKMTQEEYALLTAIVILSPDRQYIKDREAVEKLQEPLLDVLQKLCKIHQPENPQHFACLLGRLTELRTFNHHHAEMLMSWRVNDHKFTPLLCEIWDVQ
# Description: as §1
# LXRβ/RXR = test: as above; assay type: cell-based; details: 20 hr, relative to T0901317
# Description: as §1
# LXRα/RXR = test: as above; assay type: cell-based; details: 20 hr, relative to T0901317
# Description: as §1
smiles,measurement,setting,value
"CC(/C=C/[C@@H]1C[C@]1(C)c1ccc2c(c1)C(C)(C)CCC2(C)C)=C\C(=O)O [IRX4204, 3,7-dimethyl-6(S),7(S)-methano,7-[1,1,4,4-tetramethyl-1,2,3,4-tetrahydronaphth-7-yl]2(E),4(E) heptadienoic acid]",Efficacy (% of 1 μM IRX4204) RXRγ,RXRγ,0.09 ± 0.011 % of 1 μM IRX4204
same,co-expression of IFNγ and IL-17A by CD4 T cells in CNS,EAE in B6 mice,not significantly different
same,CCR6 expression on CD4 T cells,EAE in B6 mice; spleen,lowered
same,CD4+CD25hi cells (number),EAE in B6 mice; spleen,reduced
same,CD4+CD25hi cells frequency,EAE in B6 mice; spleen,not altered
same,CD49d expression on CD4 T cells,EAE in B6 mice; spleen,"lowered CCR6, but not CD49d"
same,total number of recently activated CD4 T cells (CD69 and CD44),EAE in B6 mice; spleen,decreased
same,size of myelinated axons in the corpus callosum,[1],significant increase
same,"clinical benefit (myelin imaging, EDSS, visual acuity) compared to placebo controls",[2],Substantial clinical benefit
same,Mbp and Pdgfra expression (real-time qPCR of lesion samples),[3],increase in Mbp expression and an increase in Pdgfra expression
same,densities of Olig2+ oligodendrocyte lineage cells and CC1+ differentiated oligodendrocytes in lesions,"[3]; oral 1-10 mg/kg/day for fourteen days, relative to vehicle",increased
same,activity detected at RARs,RARα,minimal activity
same,activation of the Nurr1/RXR permissive heterodimer,Nurr1/RXR,selectively activates
same,symptoms of EAE,EAE in SJL mice,significantly reduces the symptoms of EAE
same,total cell number and pyknotic cells compared to controls,[4],did not show any differences
same,OPC differentiation into oligodendrocytes (EGFP positive cells) compared to negative control (DMSO),[4]; all tested concentrations except the lowest concentration (1^−6 μM),significant increase in OPC differentiation into oligodendrocytes; also recorded: dose dependent increase
same,levels of Iba1 staining (microglia/macrophages) in CC compared to vehicle,[5],no difference
same,number of SMI32 stained axonal ovoids in CC compared to Vehicle,[5],trend towards decreased number of axonal ovoids
same,activation of FXR/RXR heterodimer,FXR/RXR,not to transactivate; also recorded: does not activate
same,activation of LXRβ/RXR heterodimer,LXRβ/RXR,not to transactivate; also recorded: does not activate
same,activation of LXRα/RXR heterodimer,LXRα/RXR,not to transactivate; also recorded: does not activate
